pEC50: −log10 of the molar value.

In the assay the target is High affinity nerve growth factor receptor (Homo sapiens, UniProt P04629). Put plainly: Kinase Activity Assay: TrkA kinase activity was measured as the ability of the enzyme to phosphorylate a fluorescently labeled peptide substrate. Buffer salts, reagents, and fluorescently labeled peptides were purchased from Carna Biosciences and were of the highest quality available (QSS Assist TRKA_MSA Kit). Enzyme was purchased from Cell Signaling, and was used without further purification. 384-well round bottom assay plates were prepared by the addition of 200 nl of a DMSO solution of compound at various concentrations to final inhibitor concentrations ranging from 100 μM to […]. Next, assay buffer (10 μl) containing substrate and ATP were added, followed by addition of 10 μl of enzyme in assay buffer. Final assays concentrations were: [E]=0.37 nM, [S]=1 μM, [ATP]=2 mM. The reactions were incubated at room temperature for 3 hours resulting in approximately 15% substrate phosphorylation and were terminated by the addition of 5 μl of stop buffer.
Chain of High affinity nerve growth factor receptor (P04629 whole entry): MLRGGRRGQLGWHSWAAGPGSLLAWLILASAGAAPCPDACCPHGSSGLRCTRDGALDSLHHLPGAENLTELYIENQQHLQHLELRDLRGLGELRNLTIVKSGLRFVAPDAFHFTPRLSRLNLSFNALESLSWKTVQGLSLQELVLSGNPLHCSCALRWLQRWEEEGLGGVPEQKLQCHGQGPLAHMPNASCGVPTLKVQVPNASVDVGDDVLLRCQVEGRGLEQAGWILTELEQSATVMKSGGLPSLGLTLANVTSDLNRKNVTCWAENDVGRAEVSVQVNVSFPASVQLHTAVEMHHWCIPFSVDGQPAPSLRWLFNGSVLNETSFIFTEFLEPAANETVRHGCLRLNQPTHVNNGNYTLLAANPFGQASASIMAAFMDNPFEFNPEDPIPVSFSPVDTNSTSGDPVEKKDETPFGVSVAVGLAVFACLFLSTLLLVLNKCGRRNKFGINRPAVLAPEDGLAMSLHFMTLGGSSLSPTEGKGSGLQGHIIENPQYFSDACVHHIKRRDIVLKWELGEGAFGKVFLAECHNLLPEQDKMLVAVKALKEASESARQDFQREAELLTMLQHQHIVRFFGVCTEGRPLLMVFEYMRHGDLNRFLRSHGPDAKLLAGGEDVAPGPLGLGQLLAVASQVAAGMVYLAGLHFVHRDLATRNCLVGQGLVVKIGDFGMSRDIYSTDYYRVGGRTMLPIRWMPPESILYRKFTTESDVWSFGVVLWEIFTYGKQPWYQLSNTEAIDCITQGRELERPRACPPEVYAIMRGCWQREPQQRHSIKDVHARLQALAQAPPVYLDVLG
As usually defined, the pEC50 is the EC50 on a negative log10 scale, so that one unit is a factor of ten. Take `CC(C)N(Cc1cccc(-c2nccs2)c1)C(=O)Nc1ccc(OC(F)(F)F)cc1`: the pEC50 is 6.92. In the case of `CC(C)N(Cc1n[nH]c2ncccc12)C(=O)Nc1ccc(SC(F)(F)F)cc1`, the pEC50 is 7.60. As to `C#CC(C)N(Cc1cccc(-c2nccs2)c1)C(=O)Nc1ccc(OC(F)(F)F)cc1` (configuration not stated), the pEC50 is 7.32. Regarding `CC(C)N(Cc1cc(-c2nccs2)ccn1)C(=O)Nc1ccc(OC(F)(F)F)cc1`, the pEC50 was 5.09. For the compound `CC(C)N(Cc1cccc(-c2nccs2)c1)C(=O)Nc1cnc(C(C)(C)C)nc1`, the pEC50 is 6.99. In the case of `CC1(C)CCN(c2ccc(SC(F)(F)F)cc2)C(=O)N1Cc1c[nH]c2ncccc12`, the pEC50 is 7.71. As for `CC(C)N(Cc1n[nH]c2ncccc12)C(=O)Nc1ccc(OC(F)(F)F)cc1`, the figure is 6.85.

Source of the values: ChEMBL document CHEMBL3886351, “TrkA kinase inhibitors, compositions and methods thereof” (2015).
